Laboratory results published in patent US8309766B2 (Obschestvo S. Organichennoi Otvetstvennostiyu …, priority 2005, dated 2012).
Read-outs that look alike come from different tables or passages of the source.

Experiments:
[1] = test system: cyclooxygenase; assay: In vitro effect on [14C]arachidonic acid metabolism in a cell-free homogenate of murine pulmonary tissue; assay type: biochemical, CBA mice; conditions: compound 10^−4 M, 37° C., 30 minutes
Procedure: Studies of arachidonic acid metabolism was carried out on females CBA mice who where fed a standard vivarium fodder. Animals (mice) were sacrificed, lungs were extracted, homogenized in a glass homogenizer manufactured by the firm “Wheaton” (USA) at 4° C. in 10 volumes of 0.05 M Tris-HCl buffer. Aliquots (0.5 ml) of supernatant were incubated in 0.5 μCi [1-C^14]-arachidonic acid [C^14]-AA, “Amersham”, England; specific activity 50-60 μCi/mmole) at 37° C. for 30 minutes. Non-metabolized [αC^14]-AA and products of metabolism thereof were extracted in 20 volumes of chloroform and methanol mixture (1:1) in extraction efficacy not less than 90% assessed using [C^14]-PGF2α. [C^14]-AA and metabolites thereof were separated and identified using TLC (the plates Kieselgel 60 of the “Merck” firm, Germany) using as an organic phase, the system of solvents (ethylacetate, isooctane, acetic acid, water—110:50:20:100) and labeled standards. Densitometry of autoradiochromograms obtained on the X-ray film X-Omat AR (“Kodak”, USA) and HS 11 (“ORWO”, Germany), was performed on the densiscan KS 3 (“Kipp and Zonnen”, Holland). Quantitative analysis of individual eicosanoids was carried out using radiometry of fractions obtained by high-performance liquid chromatography (the HPLC-system of the “Gilson” form, France; the column ZORBAX C8 of the “Du Pont” firm, USA) and by elution of spots on TLC-plates. The tested compounds were administered at concentration 10^−4 M.

[2] = test system: "hot plate" test in mice; assay: Analgetic activity on the model "hot plate"; assay type: in vivo, white mongrel mice; conditions: 10 mg/kg; for response vs control in vivo at 10 mg/kg / change in vivo at 10 mg/kg: Mus musculus; for response vs control in vivo at 10 mg/kg: percent of background, read-out: Latent time of NT (%); for change in vivo at 10 mg/kg: read-out: Analgesia (%)
Procedure: The tests were conducted on males of white mongrel mice weighing 22-24 grams. The animals were individually placed on a hot plate (manufactured by the firm “Ugo Basile”), a temperature of which remained constant and was equal to 55° C. The following first manifestations of pain reaction were recorded: licking paws, jumping up prior to administration of a substance (background parameters) and 0.5, 1, 2, 3 and 4 hours post administration of a substance. Substances were administered […] (using a probe). A weighed amount of a substance was thoroughly mixed in 0.1 ml Tween 80 until a solution was obtained, then normal saline was added up to a volume of 0.5 ml. Average latent time of nociception threshold (NT) was calculated in every group. The results obtained were expressed in percent of the background values. Analgetic effect (in %) was calculated according to the formula: A−100%=X, wherein A is a background parameter; X is analgetic effect (in %)
A is (time 0.5 to 4 hours post administration×100%): background time
As reference drugs, Analgin (150 mg/kg), Paracetamol (200 mg/kg), Ketorol (10 mg/kg), were used.

O=C(CCc1ccc(O)cc1)NCCc1ccccc1 [Compound IX, 3-(p-hydroxyphenyl)-propionylphenylethylamine]
Prostanoids ([1]; b308 reads these as % cyclooxygenase inhibition): −33 | 6-keto-PGF1α ([1]; change): −30 | AA (arachidonic acid) ([1]; change): +47 | PGE2 ([1]; change): −38 | PGF2α ([1]; change): −27 | TXB2 ([1]; change): −40 | latent time of nociception threshold, M ± m ([2]; 30 minutes post administration): 8.4 ± 1.23 s | latent time of nociception threshold, M ± m ([2]; 60 minutes post administration): 7.36 ± 1.04 s | latent time of nociception threshold, M ± m ([2]; 120 minutes post administration): 9.83 ± 2.52 s | latent time of nociception threshold, M ± m ([2]; 240 minutes post administration): 7.72 ± 0.24 s | response vs control in vivo at 10 mg/kg ([2]; 0.5 h, 30 minutes): 203% | change in vivo at 10 mg/kg ([2]; 0.5 h, 30 minutes): 103% | response vs control in vivo at 10 mg/kg ([2]; 1 h, 60 minutes): 178% | change in vivo at 10 mg/kg ([2]; 1 h, 60 minutes): 77.8% | response vs control in vivo at 10 mg/kg ([2]; 2 h, 120 minutes): 237% | change in vivo at 10 mg/kg ([2]; 2 h, 120 minutes): 137% | response vs control in vivo at 10 mg/kg ([2]; 4 h, 240 minutes): 186% | change in vivo at 10 mg/kg ([2]; 4 h, 240 minutes): 86.5%
